Experimental data as given in article PMC11326411, “PET imaging of [52 Mn]Mn-DOTATATE and [52 Mn]Mn-DOTA-JR11” (Research Square, 2024).
Where a SMILES comes first, the peptide text is derived from it. Bridges are numbered along the chain shown (N, C = ends). [ ]: non-standard residue; d: D form. The star is where a group is joined. DOTA = O=C(O)CN1CCN(CC(=O)O)CCN(CC(=O)*)CCN(CC(=O)O)CC1; dPhe(4-NHCONH2) = NC(=O)Nc1ccc(C[C@@H](N)C(=O)O)cc1; Dihydroorotyl(S) = O=C1C[C@@H](C(=O)*)NC(=O)N1; Phe(4-Cl) = N[C@@H](Cc1ccc(Cl)cc1)C(=O)O; Phe(4-NH2) = Nc1ccc(C[C@H](N)C(=O)O)cc1

Key:
SSTR2 + AR42J cells = assay: Cell uptake in AR42J cells; type: cell-based, rat
Description: (§1) 1×10^5 AR42J, A549, and MCF-7 cells were seeded onto 24-well plates (n = 6) and incubated at 37°C 48 h before study. […] The cells were incubated at 37°C under 5% CO2 for 2 h. Following incubation, the media was removed, and the cells were washed 3 times with ice-cold PBS. 500 μL of 0.2 M NaOH was added to detach the cells before collection into microcentrifugetubes followed by a 500 μL wash of PBS. Associated radioactivity was counted on a HIDEX (Turku, Finland) AGM gamma counter.
(§2) To normalize the counts to the total protein amount, a BCA protein assay (ThermoFisher Scientific) was performed, and the final data reported in % cell uptake/mg of protein.

AR42J cells = assay: Cell internalization assay in AR42J cells; type: cell-based, rat; settings: for internalization fraction (of total activity): 2 h incubation
Description: At each time point, the media was removed, and cells were washed 3 times with ice-cold PBS. To determine the surface bound fraction, 0.5 mL of 0.1 M citric acid (pH 5) was added to each well and incubated for 5 min. The fraction was collected into a microcentrifuge tube followed by addition of 0.5 mL gentle wash of PBS. To determine the internalized activity, 0.5 mL of 0.2 M NaOH was added to each well and incubated at 37°C for 5 min. This fraction was collected in a separate tube followed by addition of 0.5 mL of PBS wash. The final results were expressed as a percentage of the total activity that was present in each of the two fractions.

A549 cells = assay: Cell uptake in A549 cells; type: cell-based, human; settings: A549, 0.5 nM, 2 h, 37°C, per mg protein; Fig. 3A study
Description: as §1, §2

MCF-7 cells = assay: Cell uptake in MCF-7 cells; type: cell-based, human; settings: MCF-7, 0.5 nM, 2 h, 37°C, per mg protein; Fig. 3A study
Description: as §1, §2

in vivo = settings: mouse, total radioactivity, Biodistribution
Description: Subcutaneous tumor xenograft models for AR42J were established by implanting 1×10^6 cells in complete cell media subcutaneously into the right shoulder 3–4 weeks (tumor average diameter of between 5–7 mm) before study.
Mice (n = 4 per group) were anesthetized with 2.5% isoflurane in oxygen and were injected via the retroorbital sinus. After injection, at 4, 24, and 48 h, mice were imaged on a Sofie GNEXT PET/CT small animal scanner (Sofie Biosciences, Dulles, VA, USA). At each time point, 30 min of PET data were acquired followed by a 3-min CT at 80 kVp for anatomical reference. At each time point post imaging, mice were euthanized, and organs were collected, weighed, and counted for associated radioactivity on gamma counter. Radioactivity uptake was calculated as the percent injected dose per gram of tissue (% ID/g).

[1] = Stability of the radioligands in mouse serum; settings: 37°C, 5 days post incubation, radio-TLC
Description: At the specified time points, 40 μL of serum/radioligand mixture was collected and combined with an equal amount of methanol to separate serum proteins, as described in a previously published protocol on metabolite extraction and protein removal [19]. The supernatant was analyzed using both radio TLC and radio HPLC, as described above to determine the percentage intact complex.

[2] = 2 h incubation at 37°C, comparative study Fig. 4A

C[C@@H](O)[C@@H]1NC(=O)[C@H](CCCCN)NC(=O)[C@@H](Cc2ccc(NC(N)=O)cc2)NC(=O)[C@H](Cc2ccc(NC(=O)[C@@H]3CC(=O)NC(=O)N3)cc2)NC(=O)[C@H](NC(=O)[C@H](Cc2ccc(Cl)cc2)NC(=O)CN2CCN(CC(=O)O)CCN(CC(=O)O)CCN(CC(=O)O)CC2)CSSC[C@@H](C(=O)N[C@H](Cc2ccc(O)cc2)C(N)=O)NC1=O [[^52Mn]Mn-DOTA-JR11] ({DOTA}-[Phe(4-Cl)][dC][Phe(4-NH2)](Dihydroorotyl(S))[dPhe(4-NHCONH2)]KTC[dY]-NH2; disulfide 2-7 (inferred); C-terminus assumed)
cell uptake (SSTR2 + AR42J cells; [2]): 7.13 ± 0.38 %/ mg
total activity internalized (AR42J cells): 20.85 ± 0.59%
internalization fraction (of total activity) (AR42J cells): 20.85 ± 0.59%

C[C@@H](O)[C@H](NC(=O)[C@@H]1CSSC[C@H](NC(=O)[C@@H](Cc2ccccc2)NC(=O)CN2CCN(CC(=O)O)CCN(CC(=O)O)CCN(CC(=O)O)CC2)C(=O)N[C@@H](Cc2ccc(O)cc2)C(=O)N[C@H](Cc2c[nH]c3ccccc23)C(=O)N[C@@H](CCCCN)C(=O)N[C@@H]([C@@H](C)O)C(=O)N1)C(=O)O [[^52Mn]Mn-DOTATATE]
cell uptake (SSTR2 + AR42J cells; 0.5 nM, 2 h, 37°C, per mg protein, Fig. 3A study): 18.25 ± 1.31 % /mg
cell uptake (SSTR2 + AR42J cells; [2]): 11.95 ± 0.71 %/ mg
cell uptake (A549 cells): 4.07 ± 0.88 % /mg
cell uptake (MCF-7 cells): 2.30 ± 0.20 % /mg
total activity internalized (AR42J cells): 53.13 ± 1.83%
internalization fraction (of total activity) (AR42J cells): 53.13 ± 1.83%
tissue uptake at 4 h (in vivo; Blood (μL)): 0.91 ± 0.05 %ID/g
tissue uptake at 4 h (in vivo; Fat): 0.52 ± 0.19 %ID/g
tissue uptake at 4 h (in vivo; Small Intestines): 1.32 ± 0.46 %ID/g
intact complex [1]: > 95%
